From patent US10077261B2, “Imidazolin-5-one derivative useful as FASN inhibitors for the treatment of cancer” (Janssen Pharmaceutica NV, priority 2012, dated 2018) come the findings set out here.

The test system of assay [1] is A2780 ovarian cells. The assay can be described thus: A2780 ovarian cell proliferation assay in lipid reduced medium, without palmitate (MTT). The assay is classed as cell-based. The following applies: Homo sapiens, A2780, 96 h; read-out: pIC50 A2780 Ovarian Cell, Without Palmitate (converted).
The target of assay [2] is Fatty Acid Synthase Keto-reductase Domain (FASN KR) (Homo sapiens, UniProt P49327). Nature of the assay: Fatty Acid Synthase keto-reductase domain (FASN KR) inhibition, NADPH oxidation at 340 nm.
Fatty Acid Synthase Keto-reductase Domain (FASN KR), sequence (P49327 whole entry, the tested form may be a part): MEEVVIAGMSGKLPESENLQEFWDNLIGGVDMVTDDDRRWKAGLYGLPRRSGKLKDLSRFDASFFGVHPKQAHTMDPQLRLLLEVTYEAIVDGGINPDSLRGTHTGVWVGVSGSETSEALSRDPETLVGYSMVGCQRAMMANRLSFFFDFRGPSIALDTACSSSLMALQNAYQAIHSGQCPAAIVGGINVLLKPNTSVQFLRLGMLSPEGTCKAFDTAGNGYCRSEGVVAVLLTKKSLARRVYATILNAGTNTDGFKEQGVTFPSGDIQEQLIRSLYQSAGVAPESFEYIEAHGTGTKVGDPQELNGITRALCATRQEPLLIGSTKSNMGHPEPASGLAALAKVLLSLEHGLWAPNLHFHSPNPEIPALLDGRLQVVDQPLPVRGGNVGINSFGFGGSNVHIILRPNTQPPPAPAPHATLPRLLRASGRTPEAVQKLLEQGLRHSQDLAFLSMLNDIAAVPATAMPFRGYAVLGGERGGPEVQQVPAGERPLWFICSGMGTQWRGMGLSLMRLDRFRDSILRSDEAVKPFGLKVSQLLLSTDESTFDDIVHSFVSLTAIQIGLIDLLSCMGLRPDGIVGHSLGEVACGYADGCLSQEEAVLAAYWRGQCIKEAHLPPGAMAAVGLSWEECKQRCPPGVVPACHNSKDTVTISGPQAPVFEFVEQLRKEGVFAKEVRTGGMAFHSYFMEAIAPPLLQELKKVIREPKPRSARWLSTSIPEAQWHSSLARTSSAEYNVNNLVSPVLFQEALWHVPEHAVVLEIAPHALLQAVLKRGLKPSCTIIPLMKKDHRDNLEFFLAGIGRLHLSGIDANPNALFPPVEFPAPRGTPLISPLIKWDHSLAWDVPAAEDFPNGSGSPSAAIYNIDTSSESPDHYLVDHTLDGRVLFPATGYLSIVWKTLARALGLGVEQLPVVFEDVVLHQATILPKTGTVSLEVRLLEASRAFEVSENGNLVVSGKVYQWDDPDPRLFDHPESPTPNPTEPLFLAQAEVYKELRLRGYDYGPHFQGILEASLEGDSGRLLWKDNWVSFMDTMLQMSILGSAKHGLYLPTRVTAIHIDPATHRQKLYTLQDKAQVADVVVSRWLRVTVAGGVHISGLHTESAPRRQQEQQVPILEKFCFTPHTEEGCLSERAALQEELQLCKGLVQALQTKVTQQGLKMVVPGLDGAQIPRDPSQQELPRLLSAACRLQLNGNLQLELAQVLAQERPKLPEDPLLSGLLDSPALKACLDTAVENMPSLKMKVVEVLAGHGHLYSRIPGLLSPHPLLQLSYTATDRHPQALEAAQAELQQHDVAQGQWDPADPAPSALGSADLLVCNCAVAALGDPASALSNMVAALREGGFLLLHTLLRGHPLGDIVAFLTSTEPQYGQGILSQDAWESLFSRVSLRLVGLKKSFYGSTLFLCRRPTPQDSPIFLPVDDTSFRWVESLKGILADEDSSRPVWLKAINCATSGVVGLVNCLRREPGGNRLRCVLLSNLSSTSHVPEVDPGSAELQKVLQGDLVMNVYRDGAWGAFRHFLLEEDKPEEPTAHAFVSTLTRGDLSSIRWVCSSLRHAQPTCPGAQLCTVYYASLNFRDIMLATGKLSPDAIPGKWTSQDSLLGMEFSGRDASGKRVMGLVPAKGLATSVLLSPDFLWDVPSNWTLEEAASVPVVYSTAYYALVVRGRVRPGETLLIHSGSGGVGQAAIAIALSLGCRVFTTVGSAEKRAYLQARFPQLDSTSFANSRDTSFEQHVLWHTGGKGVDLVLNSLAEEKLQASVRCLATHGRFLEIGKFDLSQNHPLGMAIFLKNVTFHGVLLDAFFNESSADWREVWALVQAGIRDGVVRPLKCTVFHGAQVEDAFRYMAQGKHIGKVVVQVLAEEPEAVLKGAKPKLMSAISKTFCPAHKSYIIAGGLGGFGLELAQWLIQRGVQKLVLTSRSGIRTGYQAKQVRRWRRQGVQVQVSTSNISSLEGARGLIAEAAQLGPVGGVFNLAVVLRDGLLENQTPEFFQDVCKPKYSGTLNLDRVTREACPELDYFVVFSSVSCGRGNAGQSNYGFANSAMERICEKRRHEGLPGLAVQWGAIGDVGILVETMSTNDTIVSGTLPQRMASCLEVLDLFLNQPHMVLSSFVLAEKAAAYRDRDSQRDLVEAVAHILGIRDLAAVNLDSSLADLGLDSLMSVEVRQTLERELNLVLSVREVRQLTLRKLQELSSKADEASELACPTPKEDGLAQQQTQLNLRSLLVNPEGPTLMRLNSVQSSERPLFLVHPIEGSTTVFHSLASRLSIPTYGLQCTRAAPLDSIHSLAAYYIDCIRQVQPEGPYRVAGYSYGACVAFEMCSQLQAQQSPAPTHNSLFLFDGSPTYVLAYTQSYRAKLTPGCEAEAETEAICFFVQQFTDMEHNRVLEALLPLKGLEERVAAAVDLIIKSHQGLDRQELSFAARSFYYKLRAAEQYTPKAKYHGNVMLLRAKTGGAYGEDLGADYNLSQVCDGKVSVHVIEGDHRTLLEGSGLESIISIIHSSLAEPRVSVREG
Experimental: After 20 minutes incubation at room temperature the plate was measured again (T2).
The decrease in absorbance was calculated as (Absorbance before incubation T1)−(Absorbance following incubation T2).
A plot of Controlmin versus test compound concentration was fitted to a 4-parameter logistic curve using a non-linear least squares regression method.
Assay [3] has as its system LNCaP-Vancouver prostate cells. Nature of the assay: In vitro LNCaP Vancouver prostate cell proliferation assay in lipid reduced medium. Type of assay: cell-based. The following applies: read-out: pIC50 LNCaP_Vancouver prostate cell (converted).
Assay [4] relates to A2780 ovarian cells. The assay can be described thus: A2780 ovarian cell proliferation assay in lipid reduced medium, with palmitate (MTT). The assay is classed as cell-based. The following applies: Homo sapiens, A2780, 96 h; read-out: pIC50 A2780 Ovarian Cell, With Palmitate (converted). The essentials:
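In this palmitate-supplemented format, compound dilutions (30 μM down to 0.01 μM) are added to cells in lipid-reduced serum with 25 μM palmitate, 0.2% fatty-acid-free BSA and 0.25% ethanol. After four days (96 h) MTT absorbance at 544 nm is recorded and fitted by minimum sum of squares.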

Assay [5] concerns PC-3M-Luc-C6 prostate cells. The assay can be described thus: In vitro PC-3M-Luc-C6 prostate cell proliferation assay in lipid reduced medium. Type of assay: cell-based. The settings on record: 96 h, read-out: pIC50 PC-3M-Luc-C6 prostate cell (converted).
In assay [6] the target is T1, hFASN enzyme (full length) (Homo sapiens, UniProt P49327).
T1 construct: 10 μL hFASN enzyme (full length, 300 ng, purified in house); made in house
T1 sequence (P49327 whole entry): as the sequence (P49327 whole entry, the tested form may be a part) above
The assay can be described thus: Fatty Acid Synthase (FASN) inhibition scintillation proximity assay. Type of assay: biochemical. The settings on record: for inhibition at 10 µM: read-out: Human FASN % inhibition @ 10 μM, 10 μM test compound; for IC50: read-out: Human FASN pIC50 (converted). The essentials:
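Read-out relies on hydrophobic ³H-palmitate product, formed from ³H-acetyl-CoA and malonyl-CoA, binding streptavidin imaging beads, measured at 610±20 nm after at least 24 h. Full-length enzyme (300 ng) in phosphate buffer pH 7.5 with DTT; eight compound concentrations, 0.01–30 μM.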

In the case of `Cn1nccc1-c1ccc(-c2ccc(C3=NC4(CC4)C(=O)N3CC3CN(C(=O)C4(C)CC4)C3)c(F)c2)cc1` [compound 566, 5-[3-Fluoro-4′-(1-methyl-1H-pyrazol-5-yl)biphenyl-4-yl]-6-({1-[(1-methylcyclopropyl)carbonyl]azetidin-3-yl}methyl)-4,6-diazaspiro[2.4]hept-4-en-7-one], the IC50 in the assay with A2780 ovarian cells [1] was 295 nM; in assay [2] it was 776 nM; in assay [3] it was 1550 nM; in the assay with A2780 ovarian cells [4], > 10000 nM; in assay [5] it was 575 nM; in assay [6], 380 nM. Besides, the inhibition at 10 µM in assay [6] came to 93%.
Take `Cc1ccc2ccc(-c3ccc(C4=NC5(CC5)C(=O)N4CC4CN(C(=O)C5(C)CC5)C4)c(C)c3)cc2n1` [compound 576, 6-({1-[(1-Methylcyclopropyl)carbonyl]azetidin-3-yl}methyl)-5-[2-methyl-4-(2-methylquinolin-7-yl)phenyl]-4,6-diazaspiro[2.4]hept-4-en-7-one]: the IC50 was 288 nM in the assay on A2780 ovarian cells [1]; 676 nM in assay [2]; 2140 nM in assay [3]; > 10000 nM with A2780 ovarian cells [4]; 676 nM in assay [5]; 380 nM in assay [6]. In addition, the inhibition at 10 µM in assay [6] was determined as 99%.
As to `Cc1cc(-c2cccc(NS(=O)(=O)C3CC3)c2)ccc1C1=NC2(CC2)C(=O)N1CC1CN(C(=O)C2CC2)C1` [compound 578, N-[4′-(6-{[1-(Cyclopropylcarbonyl)azetidin-3-yl]methyl}-7-oxo-4,6-diazaspiro[2.4]hept-4-en-5-yl)-3′-methylbiphenyl-3-yl]cyclopropanesulfonamide], the IC50 was 331 nM in the assay on A2780 ovarian cells [1]; 1550 nM in assay [2]; 5010 nM in assay [3]; > 10000 nM in the assay with A2780 ovarian cells [4]; 871 nM in assay [5]; 646 nM in assay [6]. For the same compound, in assay [6], the inhibition at 10 µM is 92%.
As to `Cc1cc(-c2ccc3ccc(C(N)=O)nc3c2)ccc1C1=NC2(CC2)C(=O)N1CC1CN(C(=O)C2(C)CC2)C1` [compound 579, 7-{3-Methyl-4-[6-({1-[(1-methylcyclopropyl)carbonyl]azetidin-3-yl}methyl)-7-oxo-4,6-diazaspiro[2.4]hept-4-en-5-yl]phenyl}quinoline-2-carboxamide], the IC50 in the assay with A2780 ovarian cells [1] was 1100 nM; in assay [2] it was 4570 nM; in assay [3] it was 4570 nM; in the assay with A2780 ovarian cells [4], > 10000 nM; in assay [5], 2000 nM; in assay [6], 1100 nM. The inhibition at 10 µM in assay [6] came to 83%.
Regarding `Cc1cc(-c2ccc3c(c2)cc(C)n3C)ccc1C1=NC2(CC2)C(=O)N1CC1CN(C(=O)C2CC2)C1` [compound 582, 6-{[1-(Cyclopropylcarbonyl)azetidin-3-yl]methyl}-5-[4-(1,2-dimethyl-1H-indol-5-yl)-2-methylphenyl]-4,6-diazaspiro[2.4]hept-4-en-7-one], the IC50 is ~631 nM in the assay with A2780 ovarian cells [1]; 1200 nM in assay [2]; 3240 nM in assay [3]; > 10000 nM with A2780 ovarian cells [4]; 794 nM in assay [5]; 324 nM in assay [6]. The inhibition at 10 µM in assay [6] was 103%.
`Cn1ncc2cc(-c3ccc(C4=NC5(CC5)C(=O)N4CC4CN(C(=O)C5CC5)C4)c(Cl)c3)ccc21` [compound 584, 5-[2-Chloro-4-(1-methyl-1H-indazol-5-yl)phenyl]-6-{[1-(cyclopropylcarbonyl)azetidin-3-yl]methyl}-4,6-diazaspiro[2.4]hept-4-en-7-one]: the IC50 in the assay with A2780 ovarian cells [1] is 63.1 nM; in assay [2] it was 170 nM; in assay [3] it was 646 nM; in the assay on A2780 ovarian cells [4], 6610 nM; in assay [5], 83.2 nM; in assay [6], 135 nM. The inhibition at 10 µM in assay [6] came to 91%.
`Cc1cc(-c2ccc3ccc(Cl)nc3c2)ccc1C1=NC2(CC2)C(=O)N1CC1CN(C(=O)C2(C)CC2)C1` [compound 594, 5-[4-(2-Chloroquinolin-7-yl)-2-methylphenyl]-6-({1-[(1-methylcyclopropyl)carbonyl]azetidin-3-yl}methyl)-4,6-diazaspiro[2.4]hept-4-en-7-one]: the IC50 with A2780 ovarian cells [1] is 617 nM; in assay [2] it was 1070 nM; in assay [3] it was 1910 nM; in the assay on A2780 ovarian cells [4] it was > 10000 nM; in assay [5] it was ~589 nM; in assay [6], 245 nM. The inhibition at 10 µM in assay [6] is 102%.
For the compound `Cc1cc(-c2cccc3nn(C)cc23)ccc1C1=NC2(CC2)C(=O)N1CC1CN(C(=O)C2(C)CC2)C1` [compound 598, 6-({1-[(1-Methylcyclopropyl)carbonyl]azetidin-3-yl}methyl)-5-[2-methyl-4-(2-methyl-2H-indazol-4-yl)phenyl]-4,6-diazaspiro[2.4]hept-4-en-7-one], the IC50 was 200 nM in the assay with A2780 ovarian cells [1]; 309 nM in assay [2]; 2340 nM in assay [3]; > 10000 nM in the assay with A2780 ovarian cells [4]; ~355 nM in assay [5]; 209 nM in assay [6]. Moreover, in assay [6], the inhibition at 10 µM turned out to be 103%.
For `Cc1cc(-c2nn(C)c3ccccc23)ccc1C1=NC2(CC2)C(=O)N1CC1CN(C(=O)C2(C)CC2)C1` [compound 600, 6-({1-[(1-Methylcyclopropyl)carbonyl]azetidin-3-yl}methyl)-5-[2-methyl-4-(1-methyl-1H-indazol-3-yl)phenyl]-4,6-diazaspiro[2.4]hept-4-en-7-one], the IC50 in the assay with A2780 ovarian cells [1] was ~603 nM; in assay [2], 1200 nM; in assay [3], 2240 nM; in the assay on A2780 ovarian cells [4], > 10000 nM; in assay [5], 501 nM; in assay [6] it was 417 nM. Moreover, in assay [6], the inhibition at 10 µM was 98%.
`Cc1cc(-c2ccc(-c3ccn(CC4CC4)n3)cc2)ccc1C1=NC2(CC2)C(=O)N1CC1CN(C(=O)C2(C)CC2)C1` [compound 601, 5-{4′-[1-(Cyclopropylmethyl)-1H-pyrazol-3-yl]-3-methylbiphenyl-4-yl}-6-({1-[(1-methylcyclopropyl)carbonyl]azetidin-3-yl}methyl)-4,6-diazaspiro[2.4]hept-4-en-7-one]: the IC50 is 219 nM in the assay with A2780 ovarian cells [1]; 501 nM in assay [2]; 1020 nM in assay [3]; 3890 nM in the assay on A2780 ovarian cells [4]; 316 nM in assay [5]; 186 nM in assay [6]. Besides, the inhibition at 10 µM in assay [6] is 100%.
`Cc1cc(-c2ccc(-c3ccn(CC(C)C)n3)cc2)ccc1C1=NC2(CC2)C(=O)N1CC1CN(C(=O)C2(C)CC2)C1` [compound 602, 6-({1-[(1-Methylcyclopropyl)carbonyl]azetidin-3-yl}methyl)-5-{3-methyl-4′-[1-(2-methylpropyl)-1H-pyrazol-3-yl]biphenyl-4-yl}-4,6-diazaspiro[2.4]hept-4-en-7-one]: the IC50 with A2780 ovarian cells [1] is 380 nM; in assay [2], 1550 nM; in assay [3], 1480 nM; with A2780 ovarian cells [4] it was 6170 nM; in assay [5], 692 nM; in assay [6], 324 nM. In addition, in assay [6], the inhibition at 10 µM amounted to 94%.
For the compound `Cc1cc(-c2ccc3ccc(C#N)nc3c2)ccc1C1=NC2(CC2)C(=O)N1CC1CN(C(=O)C2(C)CC2)C1` [compound 604, 7-{3-Methyl-4-[6-({1-[(1-methylcyclopropyl)carbonyl]azetidin-3-yl}methyl)-7-oxo-4,6-diazaspiro[2.4]hept-4-en-5-yl]phenyl}quinoine-2-carbonitrile], the IC50 was 2340 nM in the assay with A2780 ovarian cells [1]; 8710 nM in assay [2]; > 10000 nM in assay [3]; ~10000 nM in the assay on A2780 ovarian cells [4]; 4170 nM in assay [5]; 1120 nM in assay [6]. The inhibition at 10 µM in assay [6] stood at 84%.
As for `Cn1nc(Cl)c2ccc(-c3ccc(C4=NC5(CC5)C(=O)N4CC4CN(C(=O)C5CC5)C4)c(F)c3)cc21` [compound 606, 5-[4-(3-Chloro-1-methyl-1H-indazol-6-yl)-2-fluorophenyl]-6-{[1-(cyclopropylcarbonyl)azetidin-3-yl]methyl}-4,6-diazaspiro[2.4]hept-4-en-7-one], the IC50 was 1230 nM in the assay on A2780 ovarian cells [1]; 1450 nM in assay [2]; 2400 nM in assay [3]; > 10000 nM in the assay with A2780 ovarian cells [4]; 1120 nM in assay [5]; 209 nM in assay [6]. For the same compound, the inhibition at 10 µM in assay [6] was determined as 97%.
In the case of `Cn1nc(Cl)c2cc(-c3ccc(C4=NC5(CC5)C(=O)N4CC4CN(C(=O)C5CC5)C4)c(F)c3)ccc21` [compound 607, 5-[4-(3-Chloro-1-methyl-1H-indazol-5-yl)-2-fluorophenyl]-6-{[1-(cyclopropylcarbonyl)azetidin-3-yl]methyl}-4,6-diazaspiro[2.4]hept-4-en-7-one], the IC50 in the assay with A2780 ovarian cells [1] is 646 nM; in assay [2], 537 nM; in assay [3], 1100 nM; in the assay on A2780 ovarian cells [4], > 10000 nM; in assay [5], 178 nM; in assay [6] it was 158 nM. The inhibition at 10 µM in assay [6] came to 102%.

Usually inhibition stands for the relative decrease from the control value, in per cent.
